Here are results for 9 molecules from patent publication EP1090020B1, “2-(PURIN-9-YL)-TETRAHYDROFURAN-3,4-DIOL DERIVATIVES” (GLAXO GROUP LIMITED, priority 1998, dated 1999).

Common to all, as to format: cell-based
Assay [1] deals with T1, human adenosine receptor (adenosine 1) (Homo sapiens, UniProt P30542).
T1 sequence (P30542 1-326): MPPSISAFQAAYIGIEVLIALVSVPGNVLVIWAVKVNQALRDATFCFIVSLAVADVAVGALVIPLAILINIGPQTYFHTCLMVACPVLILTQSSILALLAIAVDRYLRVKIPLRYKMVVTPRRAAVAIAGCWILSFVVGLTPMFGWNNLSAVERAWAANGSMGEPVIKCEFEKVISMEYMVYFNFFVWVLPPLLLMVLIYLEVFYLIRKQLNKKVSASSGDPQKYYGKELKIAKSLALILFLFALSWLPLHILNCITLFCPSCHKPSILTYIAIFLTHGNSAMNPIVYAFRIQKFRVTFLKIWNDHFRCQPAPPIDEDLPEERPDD
The assay can be described thus: Agonist activity against adenosine 1 receptor subtype (CHO cells, cAMP response element/SPAP reporter). The conditions noted are these: transfected CHO cells; effect on forskolin-enhanced cAMP reflected by SPAP; ratio to NECA. As for the experimental part: (§1) Compounds of the invention were tested for in vitro and in vivo biological activity in accordance with the following screens: • (1) Agonist activity against adenosine 2a, adenosine 1 and adenosine 3 receptor subtypes. Agonist selectivity of compounds against other human adenosine receptors was determined using Chinese hamster ovary (CHO) cells transfected with the gene for the relevant human adenosine receptor following a method based on that of Castanon and Spevak, 1994 . The CHO cells were also transfected with cyclic AMP response elements promoting the gene for secreted placental alkaline phosphatase (SPAP) (Wood, 1995). The effect of test compounds was determined by their effects on basal levels of CAMP (A2a) or on forskolin-enhanced cAMP (A1 and A3) as reflected by changes in levels of SPAP. EC50 values for compounds were then determined as a ratio to that of the non-selective agonist N-ethyl carboxamide adenosine (NECA).

For assay [2], the target named is T2, human adenosine receptor (adenosine 3) (Homo sapiens, UniProt P0DMS8).
T2 sequence (P0DMS8 1-318): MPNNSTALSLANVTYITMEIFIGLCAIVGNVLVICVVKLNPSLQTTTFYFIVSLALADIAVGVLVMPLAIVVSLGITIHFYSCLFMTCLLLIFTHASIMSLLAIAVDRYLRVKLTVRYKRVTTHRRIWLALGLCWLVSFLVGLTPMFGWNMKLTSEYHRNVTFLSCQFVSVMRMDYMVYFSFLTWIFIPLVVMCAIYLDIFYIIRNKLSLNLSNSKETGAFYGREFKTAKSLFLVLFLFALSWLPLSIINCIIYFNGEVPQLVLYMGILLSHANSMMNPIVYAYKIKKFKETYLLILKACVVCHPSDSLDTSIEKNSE
Put plainly: Agonist activity against adenosine 3 receptor subtype (CHO cells, cAMP response element/SPAP reporter). The conditions noted are these: transfected CHO cells; effect on forskolin-enhanced cAMP reflected by SPAP; ratio to NECA. The procedure: as §1

Assay [3] has as its target human adenosine receptor (adenosine 2a) (Homo sapiens, UniProt P29274). The assay can be described thus: Agonist activity against adenosine 2a receptor subtype (CHO cells, cAMP response element/SPAP reporter). The conditions noted are these: transfected CHO cells; effect on basal levels of cAMP reflected by SPAP; ratio to NECA. The procedure:
as §1

human adenosine receptor (adenosine 2a), sequence (P29274 whole entry): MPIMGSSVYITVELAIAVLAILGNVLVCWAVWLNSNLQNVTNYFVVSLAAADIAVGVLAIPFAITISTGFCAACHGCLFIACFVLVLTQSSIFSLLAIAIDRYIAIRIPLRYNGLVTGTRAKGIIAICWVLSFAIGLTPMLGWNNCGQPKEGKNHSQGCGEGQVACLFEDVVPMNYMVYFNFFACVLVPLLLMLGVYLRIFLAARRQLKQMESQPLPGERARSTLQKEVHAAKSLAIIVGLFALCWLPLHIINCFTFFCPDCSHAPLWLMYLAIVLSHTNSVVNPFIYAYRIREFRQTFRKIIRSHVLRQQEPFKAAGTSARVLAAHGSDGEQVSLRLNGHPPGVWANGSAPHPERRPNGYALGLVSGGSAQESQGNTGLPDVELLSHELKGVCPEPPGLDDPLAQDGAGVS

Turning to `O=CO.OC[C@H](Cc1ccccc1)Nc1nc(NCC(c2ccccc2)c2ccccc2)c2ncn([C@@H]3O[C@H](c4nnc[nH]4)[C@@H](O)[C@H]3O)c2n1` [Example 8, (2R,3R,4S,5R)-2-[6-(2,2-Diphenyl-ethylamino)-2-(1S-hydroxymethyl-2-phenyl-ethylamino)-purin-9-yl]-5-(4H-[1,2,4]triazol-3-yl)-tetrahydro-furan-3,4-diol formate], the “A1; EC50 values as a ratio of that of NECA” value (shortened to “A1; EC50 values as a ratio”) in assay [1] came out at 280.97. In addition, the “A3; EC50 values as a ratio of that of NECA” value (from here on “A3; EC50 values as a ratio”) in assay [2] is given as greater than 326. In addition, the “A2a; EC50 values as a ratio of that of NECA” value (“A2a; EC50 values as a ratio” for short) in assay [3] came to 26.74.

Consider `O=CO.O[C@@H]1[C@H](O)[C@@H](c2nnc[nH]2)O[C@H]1n1cnc2c(NCC(c3ccccc3)c3ccccc3)nc(NC3CCCC3)nc21` [Example 6, (2R,3R,4S,5R)-2-[2-Cyclopentylamino-6-(2,2-diphenyl-ethylamino)-purin-9-yl]-5-(4H-[1,2,4]triazol-3-yl)-tetrahydro-furan-3,4-diol formate], for which the “A1; EC50 values as a ratio” value in assay [1] is given as 1627. Also, the “A3; EC50 values as a ratio” value in assay [2] was greater than 305. Moreover, in assay [3], the “A2a; EC50 values as a ratio” value is 16.96.

With `O=CO.O[C@@H]1[C@H](O)[C@@H](c2nnc[nH]2)O[C@H]1n1cnc2c(NCC(c3ccccc3)c3ccccc3)nc(N[C@@H]3CCNC3)nc21` [Example 3, (2R,3R,4S,5R)-2-[6-(2,2-Diphenyl-ethylamino)-2-(pyrrolidin-3R-ylamino)-purin-9-yl]-5-(4H-[1,2,4]triazol-3-yl)-tetrahydro-furan-3,4-diol formate], in assay [1], the “A1; EC50 values as a ratio” value was 586.92. Also, the “A3; EC50 values as a ratio” value in assay [2] is greater than 306. Besides, the “A2a; EC50 values as a ratio” value in assay [3] is recorded as 10.49.

For the molecule `O=CO.O[C@@H]1[C@H](O)[C@@H](c2nnc[nH]2)O[C@H]1n1cnc2c(NCC(c3ccccc3)c3ccccc3)nc(NCCc3ccccn3)nc21` [Example 5, (2R,3R,4S,5R)-2-[6-(2,2-Diphenyl-ethylamino)-2-(2-pyridin-2-yl-ethylamino)-purin-9-yl]-5-(4H-[1,2,4]triazol-3-yl)-tetrahydro-furan-3,4-diol formate], the “A1; EC50 values as a ratio” value in assay [1] is given as 3329. In addition, the “A3; EC50 values as a ratio” value in assay [2] is reported as greater than 397. For the same molecule, the “A2a; EC50 values as a ratio” value in assay [3] worked out at 19.3.

Turning to `N=C(N)NCCNc1nc(NCC(c2ccccc2)c2ccccc2)c2ncn([C@@H]3O[C@H](c4nnc[nH]4)[C@@H](O)[C@H]3O)c2n1.O=CO` [Example 7, N-{2-[9-[3R,4S-Dihydroxy-5R-(4H-[1,2,4]triazol-3-yl)-tetrahydro-furan-2R-yl]-6-(2,2-diphenyl-ethylamino)-9H-purin-2-ylamino]-ethyl}-guanidine formate], the “A1; EC50 values as a ratio” value in assay [1] amounted to 2577. Also, the “A3; EC50 values as a ratio” value in assay [2] is recorded as greater than 368. Further, the “A2a; EC50 values as a ratio” value in assay [3] is 19.01.

With `Cn1cnc(CCNc2nc(NCC(c3ccccc3)c3ccccc3)c3ncn([C@@H]4O[C@H](c5nnc[nH]5)[C@@H](O)[C@H]4O)c3n2)c1.O=CO` [Example 2, (2R,3R,4S,5R)-2-{6-(2,2-Diphenyl-ethylamino)-2-[2-(1-methyl-1H-imidazol-4-yl)-ethylamino]-purin-9-yl}-5-(4H-[1,2,4]triazol-3-yl)-tetrahydro-furan-3,4-diol formate], in assay [1], the “A1; EC50 values as a ratio” value is 1003.4. The “A3; EC50 values as a ratio” value in assay [2] is greater than 430. For the same molecule, in assay [3], the “A2a; EC50 values as a ratio” value stood at 1.08.

As to `CC(C)[C@@H](CO)Nc1nc(NCC(c2ccccc2)c2ccccc2)c2ncn([C@@H]3O[C@H](c4nnc[nH]4)[C@@H](O)[C@H]3O)c2n1.O=CO` [Example 4, (2R,3R,4S,5R)-2-[6-(2,2-Diphenyl-ethylamino)-2-(1S-hydroxymethyl-2-methyl-propylamino)-purin-9-yl]-5-(4H-[1,2,4]triazol-3-yl)-tetrahydro-furan-3,4-diol formate], the “A1; EC50 values as a ratio” value in assay [1] is reported as 670.92. For the same molecule, the “A3; EC50 values as a ratio” value in assay [2] is given as greater than 306. Also, in assay [3], the “A2a; EC50 values as a ratio” value was determined as 3.79.

As for `O=CO.O[C@@H]1[C@H](O)[C@@H](c2nnc[nH]2)O[C@H]1n1cnc2c(NCC(c3ccccc3)c3ccccc3)nc(NCCN3CCCCC3)nc21` [Example 9, (2R,3R,4S,5R)-2-[6-(2,2-Diphenyl-ethylamino)-2-(2-piperidin-1-yl-ethylamino)-purin-9-yl]-5-(4H-[1,2,4]triazol-3-yl)-tetrahydro-furan-3,4-diol formate], in assay [1], the “A1; EC50 values as a ratio” value worked out at 969.8. Moreover, the “A3; EC50 values as a ratio” value in assay [2] is listed as greater than 472. Also, in assay [3], the “A2a; EC50 values as a ratio” value is reported as 8.13.

Take `N[C@H]1CC[C@H](Nc2nc(NCC(c3ccccc3)c3ccccc3)c3ncn([C@@H]4O[C@H](c5nnc[nH]5)[C@@H](O)[C@H]4O)c3n2)CC1.O=CO` [Example 1, (2R,3R,4S,5R)-2-[2-(trans-4-Amino-cyclohexylamino)-6-(2,2-diphenyl-ethylamino)-purin-9-yl]-5-(4H-[1,2,4]triazol-3-yl)-tetrahydro-furan-3,4-diol formate]: the “A1; EC50 values as a ratio” value in assay [1] was found to be 1098. Moreover, the “A3; EC50 values as a ratio” value in assay [2] is greater than 353. For the same molecule, in assay [3], the “A2a; EC50 values as a ratio” value is on record as 11.37.
